Results from patent US8962674B2 (Tokyo Institute of Technology, priority 2006, dated 2015).

How the values were obtained:
[1] = molecular target: recombinant human β-secretase (rhBACE-1) (Homo sapiens (Human), UniProt P56817); assay: β-Secretase enzyme inhibition assay (Test Example 1); type: biochemical; details: compound solution 3 μM (FIG. 1 legend: 1.0 μM), 37° C., 2 hr, fluorescent substrate peptide
Protocol: β-Secretase Enzyme Inhibition Assay
Compounds were dissolved in dimethylsulfoxide (DMSO), and further diluted in 0.1 M sodium acetate buffer (with 150 mM sodium chloride, pH 4.5). The solution with no compound was used as a negative control. Then, 100 μL of these solutions (compound concentration: 3 μM), 1 μL of recombinant human β-secretase (rhBACE-1, R&D), and 5 μL of the fluorescent substrate peptide were mixed in a black 96-well plate (Nunc). After mixtures were incubated in the dark at 37° C. for 2 hr, the fluorescence intensities of the mixtures were measured by fluorescence microplate reader (Wallac) at 540 nm for excitation and at 590 nm for emission. The inhibition ratio was calculated as a percentage of the negative control. The sequence of the peptide was […] and labeled with fluorescent donor (Cy3) at Ser-1 and with quencher (Cy5Q) at Lys-9, respectively (Invitrogen).

Chain of recombinant human β-secretase (rhBACE-1) (P56817 46-501): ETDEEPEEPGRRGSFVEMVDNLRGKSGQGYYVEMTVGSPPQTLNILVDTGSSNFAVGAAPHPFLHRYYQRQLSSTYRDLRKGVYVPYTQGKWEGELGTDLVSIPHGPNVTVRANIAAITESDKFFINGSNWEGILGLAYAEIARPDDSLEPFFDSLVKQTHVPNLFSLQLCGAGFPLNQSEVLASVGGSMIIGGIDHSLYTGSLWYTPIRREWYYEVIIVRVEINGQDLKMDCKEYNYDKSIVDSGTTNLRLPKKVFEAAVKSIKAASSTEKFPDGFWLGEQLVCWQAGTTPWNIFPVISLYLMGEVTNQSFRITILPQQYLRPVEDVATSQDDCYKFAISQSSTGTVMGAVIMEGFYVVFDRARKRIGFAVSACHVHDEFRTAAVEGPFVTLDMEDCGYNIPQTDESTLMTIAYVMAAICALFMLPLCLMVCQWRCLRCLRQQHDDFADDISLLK

inhibition of BACE-1 enzyme activity (inhibitory activities (%) shown in FIG. 1) [1] | melting point | SMILES
strongly inhibited | 222 to 226 °C | O=C(/C=C/c1ccc(O)cc1)CC(=O)/C=C/c1ccc2[nH]ccc2c1 [CU187, (1E,6E)-1-(4-hydroxyphenyl)-7-(1H-indol-5-yl)hepta-1,6-diene-3,5-dione]
strongly inhibited | 182 to 185 °C | COc1ccc(/C=C/C(=O)CC(=O)/C=C/c2ccc3[nH]ccc3c2)cc1O [CU193, (1E,6E)-1-(3-hydroxy-4-methoxyphenyl)-7-(1H-indol-5-yl)hepta-1,6-diene-3,5-dione]
strongly inhibited | 190 to 192 °C | COc1ccc(/C=C/C(=O)CC(=O)/C=C/c2cccc(O)c2OC)cc1O [CU176, (1E,6E)-1-(3-hydroxy-2-methoxyphenyl)-7-(3-hydroxy-4-methoxyphenyl)hepta-1,6-diene-3,5-dione]
strongly inhibited | – | COc1cc(/C=C/C(=O)CC(=O)/C=C/c2ccc3cc[nH]c3c2)ccc1O [CU190, (1E,6E)-1-(4-hydroxy-3-methoxyphenyl)-7-(1H-indol-6-yl)hepta-1,6-diene-3,5-dione]
strongly inhibited | 217 to 222 °C | CN(C)c1ccc(/C=C/C(=O)CC(=O)/C=C/c2ccc(O)cc2)c([N+](=O)[O-])c1 [CU194, (1E,6E)-1-(4-dimethylamino-2-nitrophenyl)-7-(4-hydroxyphenyl)hepta-1,6-diene-3,5-dione]
– | 101 to 108 °C | CCN(CC)c1ccc(/C=C/C(=O)CC(=O)/C=C/c2ccc(OC)c(O)c2)c(O)c1 [CU278, (1E,6E)-1-(4-diethylamino-2-hydroxyphenyl)-7-(3-hydroxy-4-methoxyphenyl)hepta-1,6-diene-3,5-dione]
– | 255 to 260 °C | O=C(/C=C/c1ccc(O)cc1)CC(=O)/C=C/c1ccc(-n2ccnc2)cc1 [CU329, (1E,6E)-1-(4-hydroxyphenyl)-7-[4-(1H-imidazol-1-yl)phenyl]hepta-1,6-diene-3,5-dione]
– | 205 to 209 °C | CN(C)c1ccc(/C=C/C(=O)CC(=O)/C=C/c2ccc(O)cc2)cc1 [CU207, (1E,6E)-1-(4-dimethylaminophenyl)-7-(4-hydroxyphenyl)hepta-1,6-diene-3,5-dione]
– | 160 to 164 °C | COc1ccc(/C=C/C(=O)CC(=O)/C=C/c2ccc(N(C)C)cc2Cl)cc1O [CU202, (1E,6E)-1-(2-chloro-4-dimethylaminophenyl)-7-(3-hydroxy-4-methoxyphenyl)hepta-1,6-diene-3,5-dione]
– | 69 to 75 °C | COc1cc(O)cc(/C=C/C(=O)CC(=O)/C=C/c2ccc(O)c(OC)c2)c1 [CU181, (1E,6E)-1-(3-hydroxy-5-methoxyphenyl)-7-(4-hydroxy-3-methoxyphenyl)hepta-1,6-diene-3,5-dione]
– | 226 to 233 °C | COc1ccc(/C=C/C(=O)CC(=O)/C=C/c2c[nH]c3cccc([N+](=O)[O-])c23)cc1O [CU463, (1E,6E)-1-(3-hydroxy-4-methoxyphenyl)-7-(4-nitro-1H-indol-3-yl)hepta-1,6-diene-3,5-dione]
– | 251 to 255 °C | O=C(/C=C/c1ccc(O)cc1)CC(=O)/C=C/c1ccc2nccnc2c1 [CU348, (1E,6E)-1-(4-hydroxyphenyl)-7-(quinoxalin-6-yl)hepta-1,6-diene-3,5-dione]
– | 148 to 150 °C | COc1ccc(/C=C/C(=O)CC(=O)/C=C/c2cccc(Oc3ccccc3)c2)cc1O [CU220, (1E,6E)-1-(3-hydroxy-4-methoxyphenyl)-7-(3-phenoxyphenyl)hepta-1,6-diene-3,5-dione]
– | 136 to 142 °C | CN(C)c1ccc(/C=C/C(=O)CC(=O)CCc2ccc(O)cc2)c([N+](=O)[O-])c1 [CU523, (E)-1-(4-dimethylamino-2-nitrophenyl)-7-(4-hydroxyphenyl)hept-1-ene-3,5-dione]
– | 247 to 255 °C | O=C(/C=C/c1ccc2cc[nH]c2c1)CC(=O)/C=C/c1ccc2cc[nH]c2c1 [CU391, (1E,6E)-1,7-bis(1H-indol-6-yl)hepta-1,6-diene-3,5-dione]
– | 164 to 170 °C | O=C(/C=C/c1ccc(O)cc1)CC(=O)/C=C/c1ccc2ccn(Cc3ccccc3)c2c1 [CU400, (1E,6E)-1-(1-benzyl-1H-indol-6-yl)-7-(4-hydroxyphenyl)hepta-1,6-diene-3,5-dione]
– | 190 to 194 °C | COc1ccc(/C=C/C(=O)CC(=O)/C=C/c2ccc3ccn(Cc4ccccc4)c3c2)cc1O [CU444, (1E,6E)-1-(1-benzyl-1H-indol-6-yl)-7-(3-hydroxy-4-methoxyphenyl)hepta-1,6-diene-3,5-dione]
strongly inhibited | – | Cn1cc(/C=C/C(=O)CC(=O)/C=C/c2ccc(O)cc2)cn1 [CU198, (1E,6E)-1-(4-hydroxyphenyl)-7-(1-methyl-1H-pyrrazol-4-yl)hepta-1,6-diene-3,5-dione]
– | 44 to 49 °C | CN(C)c1ccc(/C=C/C(=O)CC(=O)CCc2ccc(O)cc2)c2ccccc12 [CU518, (E)-1-(4-dimethylaminonaphthalen-1-yl)-7-(4-hydroxyphenyl)hept-1-ene-3,5-dione]

Further lines, the compound ahead of its results:

SMILES | inhibition of BACE-1 enzyme activity (inhibitory activities (%) shown in FIG. 1) [1] | melting point
COc1ccc(/C=C/C(=O)CC(=O)/C=C/c2cccn2C)cc1O [CU122, (1E,6E)-1-(3-hydroxy-4-methoxyphenyl)-7-(1-methyl-1H-pyrrol-2-yl)hepta-1,6-diene-3,5-dione] | strongly inhibited | –
COc1ccc(/C=C/C(=O)CC(=O)/C=C/c2cc(O)cc(O)c2)cc1O [CU094, (1E,6E)-1-(3,5-dihydroxyphenyl)-7-(3-hydroxy-4-methoxyphenyl)hepta-1,6-diene-3,5-dione] | strongly inhibited | 190 to 193 °C
COc1cc(/C=C/C(=O)CC(=O)/C=C/c2cccc(O)c2OC)ccc1O [CU001, (1E,6E)-1-(3-hydroxy-2-methoxyphenyl)-7-(4-hydroxy-3-methoxyphenyl)hepta-1,6-diene-3,5-dione] | strongly inhibited | 152 to 155 °C
O=C(/C=C/c1ccc(O)cc1)CC(=O)/C=C/c1ccc(O)c(F)c1 [CU030, (1E,6E)-1-(3-fluoro-4-hydroxyphenyl)-7-(4-hydroxyphenyl)hepta-1,6-diene-3,5-dione] | strongly inhibited | 190 to 192 °C
COc1cc(/C=C/C(=O)CC(=O)/C=C/c2cccn2C)ccc1O [CU121, (1E,6E)-1-(4-hydroxy-3-methoxyphenyl)-7-(1-methyl-1H-pyrrol-2-yl)hepta-1,6-diene-3,5-dione] | strongly inhibited | 131 to 132 °C
COc1ccc(/C=C/C(=O)CC(=O)/C=C/c2c(OC)cccc2OC)cc1O [CU104, (1E,6E)-1-(2,6-dimethoxyphenyl)-7-(3-hydroxy-4-methoxyphenyl)hepta-1,6-diene-3,5-dione] | strongly inhibited | 74 to 80 °C
O=C(/C=C/c1ccc(O)cc1)CC(=O)/C=C/c1cccc2ccccc12 [CU112, (1E,6E)-1-(4-hydroxyphenyl)-7-(naphthalen-1-yl)hepta-1,6-diene-3,5-dione] | strongly inhibited | –
O=C(/C=C/c1ccc(O)cc1)CC(=O)/C=C/c1c[nH]c2ccccc12 [CU110, (1E,6E)-1-(4-hydroxyphenyl)-7-(1H-indol-3-yl)hepta-1,6-diene-3,5-dione] | strongly inhibited | 215 to 220 °C
COc1ccc(/C=C/C(=O)CC(=O)/C=C/c2ccc(O)cc2)c2ccccc12 [CU116, (1E,6E)-1-(4-hydroxyphenyl)-7-(4-methoxynaphthalen-1-yl)hepta-1,6-diene-3,5-dione] | strongly inhibited | 193 to 198 °C
CCn1c2ccccc2c2cc(/C=C/C(=O)CC(=O)/C=C/c3ccc(O)c(OC)c3)ccc21 [CU017, (1E,6E)-1-(9-ethyl-9H-carbazol-3-yl)-7-(4-hydroxy-3-methoxyphenyl)hepta-1,6-diene-3,5-dione] | strongly inhibited | 165 to 169 °C
COc1cc(/C=C/C(=O)CC(=O)/C=C/c2ncc[nH]2)ccc1O [CU152, (1E,6E)-1-(4-hydroxy-3-methoxyphenyl)-7-(1H-imidazol-2-yl)hepta-1,6-diene-3,5-dione] | – | 235 to 240 °C
COc1ccc(/C=C/C(=O)CC(=O)/C=C/c2cccc(O)c2)cc1O [CU081, (1E,6E)-1-(3-hydroxy-4-methoxyphenyl)-7-(3-hydroxyphenyl)hepta-1,6-diene-3,5-dione] | – | 200 to 206 °C
COc1cc(/C=C/C(=O)CC(=O)/C=C/c2ccc(N(C)C)cc2OC)ccc1O [CU154, (1E,6E)-1-(4-dimethylamino-2-methoxyphenyl)-7-(4-hydroxy-3-methoxyphenyl)hepta-1,6-diene-3,5-dione] | – | 117 to 119 °C
O=C(/C=C/c1ccc(O)cc1)CC(=O)/C=C/c1ccccc1N1CCNCC1.O=C(O)C(F)(F)F.O=C(O)C(F)(F)F | – | 139 to 150 °C
